Measured values as given in ChEMBL document CHEMBL1201862, “PubChem BioAssay data set” (2004).
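Exposure lasted 48 hours, with cells grown in 96-well plates and compounds tested at five concentrations. The concentration for 50% growth inhibition is given as GI50.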 Activity calls are given as the source filed them. Cut-off read from the data, not from the text of the source: active = GI50 up to about 1.1 µM and inactive = higher.

Tests used:
Test in all cases: NCI tumour cell line growth inhibition, 48 h
786-0 = system: 786-0
A498 = system: A498
A549 = system: A549
ACHN = system: ACHN
BT-549 = system: BT-549
CAKI-1 = system: CAKI-1
COLO 205 = system: COLO 205
DU-145 = system: DU-145
EKVX = system: EKVX
HCC 2998 = system: HCC 2998
HCT-116 = system: HCT-116
HCT-15 = system: HCT-15
HOP-62 = system: HOP-62
HOP-92 = system: HOP-92
HT-29 = system: HT-29
Hs-578T = system: Hs-578T
IGROV-1 = system: IGROV-1
K562 = system: K562
KM12 = system: KM12
LOX IMVI = system: LOX IMVI
M14 = system: M14
MCF7 = system: MCF7
MDA-MB-231 = system: MDA-MB-231
MDA-MB-435 = system: MDA-MB-435
MDA-N = system: MDA-N
MOLT-4 = system: MOLT-4
Malme-3M = system: Malme-3M
NCI-H226 = system: NCI-H226
NCI-H23 = system: NCI-H23
NCI-H460 = system: NCI-H460
NCI-H522 = system: NCI-H522
NCI/ADR-RES = system: NCI/ADR-RES
OVCAR-3 = system: OVCAR-3
OVCAR-4 = system: OVCAR-4
OVCAR-5 = system: OVCAR-5
OVCAR-8 = system: OVCAR-8
PC-3 = system: PC-3
RPMI-8226 = system: RPMI-8226
RXF 393 = system: RXF 393
SF-268 = system: SF-268
SF-295 = system: SF-295
SF-539 = system: SF-539
SK-MEL-28 = system: SK-MEL-28
SK-MEL-2 = system: SK-MEL-2
SK-MEL-5 = system: SK-MEL-5
SK-OV-3 = system: SK-OV-3
SN12C = system: SN12C
SNB-19 = system: SNB-19
SNB-75 = system: SNB-75
SW-620 = system: SW-620
T47D = system: T47D
TK-10 = system: TK-10
U-251 = system: U-251
UACC-257 = system: UACC-257
UACC-62 = system: UACC-62
UO-31 = system: UO-31
CCRF-CEM = system: CCRF-CEM
HL-60 = system: HL-60
SR = system: SR

Which results are given for `COc1ccc(CC(COS(=O)(=O)c2ccc(C)cc2)NS(=O)(=O)c2ccc(C)cc2)cc1` (centres undefined)?
GI50 (786-0): 16 µM (inactive); GI50 (A498): 12.8 µM (inactive); GI50 (A549): 12.1 µM (inactive); GI50 (ACHN): 12.3 µM (inactive); GI50 (BT-549): 5.71 µM (inactive); GI50 (CAKI-1): 17.4 µM (inactive); GI50 (COLO 205): 11.7 µM (inactive); GI50 (DU-145): 10.8 µM (inactive); GI50 (EKVX): 14.6 µM (inactive); GI50 (HCC 2998): 11.9 µM (inactive); GI50 (HCT-116): 12.8 µM (inactive); GI50 (HCT-15): 14.2 µM; GI50 (HOP-62): 16.7 µM (inactive); GI50 (HOP-92): 6.56 µM (inactive); GI50 (HT-29): 10.2 µM (inactive); GI50 (Hs-578T): 15.6 µM (inactive); GI50 (IGROV-1): 7.87 µM (inactive); GI50 (K562): 43.2 µM (inactive); GI50 (KM12): 16.9 µM (inactive); GI50 (LOX IMVI): 19.5 µM (inactive); GI50 (M14): 8.34 µM (inactive); GI50 (MCF7): 8.24 µM (inactive); GI50 (MDA-MB-231): > 53.5 µM (inactive); GI50 (MDA-MB-435): 13.9 µM (inactive); GI50 (MDA-N): 19.6 µM (inactive); GI50 (MOLT-4): > 100 µM (inactive); GI50 (Malme-3M): 10.7 µM (inactive); GI50 (NCI-H226): 7.4 µM (inactive); GI50 (NCI-H23): 13.7 µM (inactive); GI50 (NCI-H460): 11.5 µM (inactive); GI50 (NCI-H522): 7.01 µM (inactive); GI50 (NCI/ADR-RES): 11 µM (inactive); GI50 (OVCAR-3): 9.55 µM (inactive); GI50 (OVCAR-4): 20.7 µM (inactive); GI50 (OVCAR-5): 17.5 µM (inactive); GI50 (OVCAR-8): 15.3 µM (inactive); GI50 (PC-3): 14.8 µM (inactive); GI50 (RPMI-8226): 15.2 µM (inactive); GI50 (RXF 393): 3.27 µM (inactive); GI50 (SF-268): 12.2 µM (inactive); GI50 (SF-295): 13.7 µM (inactive); GI50 (SF-539): 17.1 µM (inactive); GI50 (SK-MEL-28): 15.5 µM (inactive); GI50 (SK-MEL-2): 15.1 µM (inactive); GI50 (SK-MEL-5): 9.02 µM (inactive); GI50 (SK-OV-3): 15.2 µM (inactive); GI50 (SN12C): 15.4 µM (inactive); GI50 (SNB-19): 12.6 µM (inactive); GI50 (SNB-75): 8.91 µM (inactive); GI50 (SW-620): 10.9 µM (inactive); GI50 (T47D): 5.45 µM (inactive); GI50 (TK-10): 17.4 µM (inactive); GI50 (U-251): 11.8 µM (inactive); GI50 (UACC-257): 15.8 µM (inactive); GI50 (UACC-62): 6.98 µM (inactive); GI50 (UO-31): 12.4 µM (inactive)

Which results are given for `C=C1C[C@@H](O)[C@@H](Br)C(C)(C)[C@@]12C=CC(O)(CBr)CC2` (some centres undefined)?
GI50 (786-0): > 100 µM (inactive); GI50 (A549): > 100 µM (inactive); GI50 (ACHN): > 100 µM (inactive); GI50 (BT-549): 29.9 µM (inactive); GI50 (CAKI-1): > 100 µM (inactive); GI50 (CCRF-CEM): 28.1 µM (inactive); GI50 (DU-145): > 100 µM (inactive); GI50 (EKVX): 6.98 µM (inactive); GI50 (HCT-116): > 100 µM (inactive); GI50 (HCT-15): > 100 µM; GI50 (HL-60): 35.4 µM (inactive); GI50 (HOP-62): > 100 µM (inactive); GI50 (HOP-92): 13.6 µM (inactive); GI50 (HT-29): 47.6 µM (inactive); GI50 (Hs-578T): 45.6 µM (inactive); GI50 (IGROV-1): 89.3 µM (inactive); GI50 (K562): 55.8 µM (inactive); GI50 (KM12): 1.6 µM (inactive); GI50 (LOX IMVI): 36.1 µM (inactive); GI50 (M14): > 100 µM (inactive); GI50 (MCF7): 59.6 µM (inactive); GI50 (MDA-MB-231): 29 µM (inactive); GI50 (MDA-MB-435): 66.5 µM (inactive); GI50 (MDA-N): > 100 µM (inactive); GI50 (MOLT-4): 21.4 µM (inactive); GI50 (Malme-3M): > 100 µM (inactive); GI50 (NCI-H226): > 100 µM (inactive); GI50 (NCI-H23): 94 µM (inactive); GI50 (NCI-H460): 66.4 µM (inactive); GI50 (NCI-H522): 62.4 µM (inactive); GI50 (NCI/ADR-RES): 0.0191 µM (active); GI50 (OVCAR-3): > 100 µM (inactive); GI50 (OVCAR-4): > 100 µM (inactive); GI50 (OVCAR-5): 13.7 µM (inactive); GI50 (OVCAR-8): > 100 µM (inactive); GI50 (PC-3): 1.48 µM (inactive); GI50 (RPMI-8226): 24.9 µM (inactive); GI50 (RXF 393): 43.3 µM (inactive); GI50 (SF-268): 50 µM (inactive); GI50 (SF-295): > 100 µM (inactive); GI50 (SK-MEL-28): > 100 µM (inactive); GI50 (SK-MEL-2): 86.3 µM (inactive); GI50 (SK-MEL-5): 76.7 µM (inactive); GI50 (SN12C): > 100 µM (inactive); GI50 (SNB-19): 88.9 µM (inactive); GI50 (SR): 14.8 µM (inactive); GI50 (SW-620): > 100 µM (inactive); GI50 (T47D): > 100 µM (inactive); GI50 (TK-10): > 100 µM (inactive); GI50 (U-251): 63.4 µM (inactive); GI50 (UACC-257): > 100 µM (inactive); GI50 (UACC-62): 43.3 µM (inactive); GI50 (UO-31): > 100 µM (inactive)
